Measured values: PubChem BioAssay (NCI)
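Following 48 hours of exposure in 96-well plates, responses at five concentrations were used to interpolate endpoints linearly. GI50: concentration for 50% inhibition of growth. At the TGI there is no net growth.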

Columns and labels:
Assay in all cases: NCI tumour cell line growth inhibition, 48 h
786-0 renal = system: 786-0 renal
IGROV1 ovarian = system: IGROV1 ovarian
NCI-H23 lung = system: NCI-H23 lung
OVCAR-5 ovarian = system: OVCAR-5 ovarian
RXF 393 renal = system: RXF 393 renal
SK-OV-3 ovarian = system: SK-OV-3 ovarian
UO-31 renal = system: UO-31 renal
HS 578T breast = system: HS 578T breast
MCF7 breast = system: MCF7 breast
PC-3 prostate = system: PC-3 prostate

| SMILES | TGI (786-0 renal) [µM] | TGI (IGROV1 ovarian) [µM] | TGI (NCI-H23 lung) [µM] | TGI (OVCAR-5 ovarian) [µM] | TGI (RXF 393 renal) [µM] | TGI (SK-OV-3 ovarian) [µM] | TGI (UO-31 renal) [µM] | GI50 (786-0 renal) [µM] | GI50 (HS 578T breast) [µM] | TGI (HS 578T breast) [µM] | GI50 (IGROV1 ovarian) [µM] | GI50 (MCF7 breast) [µM] | TGI (MCF7 breast) [µM] | GI50 (NCI-H23 lung) [µM] | GI50 (OVCAR-5 ovarian) [µM] | GI50 (PC-3 prostate) [µM] | TGI (PC-3 prostate) [µM] | GI50 (SK-OV-3 ovarian) [µM] | GI50 (RXF 393 renal) [µM] | GI50 (UO-31 renal) [µM] |
| --- | --- | --- | --- | --- | --- | --- | --- | --- | --- | --- | --- | --- | --- | --- | --- | --- | --- | --- | --- | --- |
| CN(C)C(=S)/N=c1\ssc(=S)n1-c1ccccc1 | 30.5 | 39.1 | 77.5 | 29.9 | 33 | > 100 | 44.1 |  |  |  |  |  |  |  |  |  |  |  |  |  |
| NCCn1ccc(NC(c2ccccc2)(c2ccccc2)c2ccccc2)nc1=O | 31.8 | > 100 |  | > 100 | 21.3 |  | > 100 |  |  |  |  |  |  |  |  |  |  |  |  |  |
| CCCCCCCCCCCCC/C=C1\C[C@H](O)COC1=O | 29.5 | 32.3 | 36.4 | 33.5 | 42.6 | 35.1 | 32.6 |  |  |  |  |  |  |  |  |  |  |  |  |  |
| Clc1ccccc1C1N2CCCCC2[C@@H]2c3[nH]c4ccccc4c3CCN12 (some centres undefined) | 42.2 | > 100 | 45.6 | 52.7 | 40.2 | 55 | 39 |  |  |  |  |  |  |  |  |  |  |  |  |  |
| O=C(N[C@@H]1C=CCC[C@@H]1c1ccccc1)OCc1ccccc1 | 39.7 | 68.9 | 51.3 | 54.4 | 35.9 | > 100 | 36.7 |  |  |  |  |  |  |  |  |  |  |  |  |  |
| COc1ccc(OC)c(/C=C/C(=O)C(C)(C)C)c1 | 36.9 | 42.6 | 40.4 |  | 34.3 | 90.4 |  |  |  |  |  |  |  |  |  |  |  |  |  |  |
| CC1(C(=O)NCCN(CCNC(=O)C2(C)CC3(C)CC(C)(C2)C(=O)NC3=O)CCNC(=O)C2(C)CC3(C)CC(C)(C2)C(=O)NC3=O)CC2(C)CC(C)(C1)C(=O)NC2=O (centres undefined) | > 100 | > 100 | > 100 |  | > 100 | > 100 | > 100 |  |  |  |  |  |  |  |  |  |  |  |  |  |
| CCOC(=O)C1(Br)C(c2ccccc2)NC(=O)N(C2OC(COC(=O)c3ccccc3)C(OC(=O)c3ccccc3)C2OC(=O)c2ccccc2)C1(C)Br (centres undefined) | > 100 | > 100 | > 100 |  | 31 | > 100 | > 94.8 |  |  |  |  |  |  |  |  |  |  |  |  |  |
| CCOC(=O)C12CCSC1C1(C#N)C(C#N)=CC2(N=P(c2ccccc2)(c2ccccc2)c2ccccc2)n2c(=O)n(-c3ccccc3)c(=O)n21 (centres undefined) | > 100 | > 100 | > 100 | > 100 | > 100 |  | 77.2 |  |  |  |  |  |  |  |  |  |  |  |  |  |
| C=CC1(c2ccccc2Cl)N/C(=C/OCC)CO1 (centres undefined) | > 100 | > 100 | > 100 | > 100 | > 100 | > 100 | > 100 |  |  |  |  |  |  |  |  |  |  |  |  |  |
| Cc1cc2c(=O)cc(-c3ccc(C(F)(F)F)cc3)oc2c(C(=O)O)c1C | > 100 | > 100 | > 100 | > 100 | > 100 | > 100 | > 100 |  |  |  |  |  |  |  |  |  |  |  |  |  |
| CN1C(=O)N(C)C2C1NN=c1s/c(=C\c3c[nH]c4ccccc34)c(=O)n12 (centres undefined) | > 100 | > 100 | > 100 | > 100 |  | > 100 |  | 0.125 | 0.0342 | > 90.9 | 0.0654 | 0.0338 | > 100 | 0.0479 | 0.0731 | 0.0413 | > 100 | 0.082 |  |  |
| CSC1=Nc2c(c(C)c(-c3ccccc3)n2CCCCl)C2=NC(=O)CN12 | 61.7 | 21.1 | 46.3 | 37.8 | 29.8 |  | 28.6 | 8.57 | 6.3 | 35 | 3.59 | 3.42 | 16.5 | 8.26 | 11.6 | 8.68 | > 100 |  | 11.3 | 10.5 |
| NC1=NN(c2ccccc2)C(=O)C1/C(=N\NC(=O)c1cc2ccccc2cc1O)C(=O)Nc1nc([N+](=O)[O-])cs1 (centres undefined) | > 100 | 94.4 | 56.3 | > 100 | 7.27 | > 100 | 30.3 |  |  |  |  |  |  |  |  |  |  |  |  |  |
| Cc1ccc(/C=N/NS(=O)(=O)c2ccccc2)cc1 | > 100 | > 100 | > 100 | > 100 | > 100 | > 100 | > 100 |  |  |  |  |  |  |  |  |  |  |  |  |  |
| CCOc1ccccc1NC(=O)C(=O)C(C(=O)c1ccc2ccccc2c1)C1OC(=O)c2ccccc21 (centres undefined) | 21.1 | 35.2 | 26.2 | 46.1 | 9.05 | 52.8 | 29.1 |  |  |  |  |  |  |  |  |  |  |  |  |  |
| O=C(c1ccccn1)c1nc(-c2ccc(Cl)c(Cl)c2)nc2ccc(Cl)cc12 | > 100 | > 100 | 87.5 | > 100 | 46.8 | > 100 | > 100 |  |  |  |  |  |  |  |  |  |  |  |  |  |
| O=C1NC2(CCCC2)/C(=N\O)C12CCCC2 | > 100 | > 100 | > 100 | > 100 | > 100 | > 100 | > 100 |  |  |  |  |  |  |  |  |  |  |  |  |  |
